Measurements from ChEMBL document CHEMBL1152722, “5-Aryl-4-(5-substituted-2,4-dihydroxyphenyl)-1,2,3-thiadiazoles as inhibitors of Hsp90 chaperone” (Bioorg Med Chem Lett, 2009).

Legend:
U2OS = assay: Growth inhibition of human U2OS cells after 72 hrs by XTT assay; assay type: functional
HeLa = assay: Growth inhibition of human HeLa cells after 72 hrs by XTT assay; assay type: functional
Heat shock protein HSP90 = Heat shock protein HSP90 (Homo sapiens, UniProt P07900+P08238)
Description: Binding affinity to human Histidine6-tagged Hsp90alpha N-terminal domain expressed in Escherichia coli BL21 DE3 by ITC

[1] = target: Heat shock protein HSP 90-alpha (Homo sapiens, UniProt P07900)
Description: Binding affinity to human full length Histidine6-tagged Hsp90alpha expressed in Escherichia coli BL21 DE3 by ITC

| Structure (SMILES) | GI50 (U2OS) [µM] | GI50 (HeLa) [µM] | Kd (Heat shock protein HSP90) [µM] | Kd [1] [µM] |
| --- | --- | --- | --- | --- |
| COc1ccc(-c2snnc2-c2cc(Cl)c(O)cc2O)cc1 | 6 | 2.5 |  |  |
| Cc1ccc(-c2snnc2-c2cc(Cl)c(O)cc2O)cc1 | 7.1 | 3.3 |  |  |
| COc1ccc(-c2snnc2-c2cc(Cl)c(O)c(Cl)c2O)cc1 |  |  | > 20 | > 20 |
| CCOc1ccc(-c2snnc2-c2cc(CC)c(O)cc2O)cc1 | 0.69 | 0.7 |  |  |
| COc1ccc(-c2snnc2-c2cc(Cl)c(O)cc2O)cc1OC | 9.9 | 4.2 |  |  |
| CCOc1ccc(-c2snnc2-c2cc(CC)c(O)c(Cl)c2O)cc1 | 28 | 19 | > 20 | > 20 |
| CCOc1ccc(-c2snnc2-c2cc(Cl)c(O)cc2O)cc1 | 6.9 | 3.6 |  |  |
